According to PMC10590756, “Glutarate regulates T cell metabolism and anti-tumour immunity” (Nature Metabolism, 2023):

Key:
human CD8^+ T cells [1] = test: Memory populations (CCR7/CD45RO) of human CD8^+ T cells by flow cytometry; assay type: cell-based
Experimental: This contrasts with octyl ester S-2HG, which decreases cell growth from 400 µM (Extended Data Fig. 1c).
Human PBMCs were obtained from NHSBT: Addenbrooke’s Hospital, Cambridge, UK or the Karolinska Hospital Service, Sweden. Ethical approval was obtained from the East of England-Cambridge Central Research Ethics Committee (06/Q0108/281) and consent was obtained from all participants. PBMCs from healthy donors were isolated from blood using discontinuous plasma Percoll gradients. Naive CD8^+ T cells were isolated using the Naive CD8^+ T Cell Isolation Kit (catalogue no. 130-093-244, Miltenyi Biotec), in accordance with the manufacturer’s instructions. Total CD8^+ T cells were purified by either positive or negative magnetic bead sorting (catalogue nos. 130-045-201 and 130-096-495, Miltenyi Biotec). All human CD8^+ T cells were activated with anti-human CD3/CD28 Dynabeads (catalogue no. 11131D, Thermo Fisher Scientific) at a 1:1 cell:bead ratio and cultured in complete RPMI 1640 supplemented with 10% FCS, 100 U ml^−1 penicillin, 100 µg ml^−1 streptomycin and 30 U ml^−1 interleukin-2 (IL-2) (catalogue no. 11147528001, Sigma-Aldrich).
(§1) Single-cell suspensions were stained with LIVE/DEAD Fixable Near-IR Dead Cell Stain Kit (catalogue no. 10119, Thermo Fisher Scientific) followed by surface and intracellular staining with fluorochrome-labelled antibodies (Supplementary Tables 1 and 2). Staining of cytoplasmic and nuclear antigens was performed using the Cytofix/Cytoperm Fixation/Permeabilization Kit (catalogue no. 554714, BD Biosciences) and the Transcription Factor Buffer Set (catalogue no. 562725, BD Biosciences), respectively. For the proliferation assays, cells were loaded with CellTrace Violet (catalogue no. C34557, Thermo Fisher Scientific) according to the manufacturer’s instructions. Samples were acquired on an Aurora (Cytek Biosciences).

human TET2 enzyme = target: T1, human TET2 enzyme (Homo sapiens, UniProt Q6N021); test: Cell-free TET2 enzymatic activity assay; assay type: biochemical
T1 construct: purchased BPS Bioscience 50162
Experimental: A total of 2 nM of the human TET2 enzyme (catalogue no. 50162, BPS Bioscience) or 4 nM of the human KDM4C enzyme (catalogue no. 50105, BPS Bioscience) was incubated with the substrate of 30 nM single-stranded DNA (ssBiotin 26 nt Me-C Oligo, Genscript), in the presence of αKG (catalogue no. K3752, Sigma-Aldrich), 10 µM ammonium iron(II) sulphate hexahydrate (catalogue no. F3754, Sigma-Aldrich) in assay buffer (50 mM HEPES (catalogue no. 15630-080, Gibco), pH 7.0, 100 mM NaCl, 0.01% Pluronic F-127, 1 mM TCEP (S16054, Shanghai Yuanye Bio-Technology Company), 2 mM ascorbic acid (A5960, Sigma-Aldrich), 0.2 mg/ml BSA (catalogue no. B2064, Sigma-Aldrich) and 1,000 U ml^−1 catalase (catalogue no. C40, Sigma-Aldrich)). The concentration of αKG used for the TET2 standard and competitive assays was 115 µM and 4,500 µM, respectively. The concentration of αKG used for the KDM4C standard and competitive assays was 10 µM and 50 µM, respectively. The concentration of αKG used in the standard assay was calculated for each enzyme batch and is the concentration of substrate at which half the maximum reaction rate is achieved. DEG and glutaric acid were used in threefold serial dilution and the maximum concentration used was 5 mM. The pre-incubation time of the inhibitors with the TET2 mixture was 30 min at room temperature. The reaction step was at room temperature for 90 min. The product was detected by using a 5 nM anti-5hmC antibody (catalogue no. 39999, Active Motif), 5 nM Eu-Protein A (catalogue no. 61PRAKLB, Cisbio), 6.25 nM streptavidin-Alexa Fluor 647 (catalogue no. S21374, Thermo Fisher Scientific) and 10 mM EDTA (catalogue no. 0369, Sigma-Aldrich). For the standard curve, the ssBiotin 26 nt HydMe-C Oligo was used. The assays were performed in technical duplicates in a 384-well plate. Inhibitor analysis was performed within the linear range of catalysis.
The percentage of inhibition was calculated with the following formula: inhibition% = (1−(signal value per well−average low control)/(average high control−average low control)) × 100. Data were fitted using Prism (GraphPad Software) with a four-parameter equation via ‘log(inhibitor) versus response−variable slope’ model.

human KDM4C enzyme = target: T2, human KDM4C enzyme (Homo sapiens, UniProt Q9H3R0); test: Cell-free KDM4C enzymatic activity assay; assay type: biochemical
T2 construct: purchased BPS Bioscience 50105
T2 sequence (Q9H3R0 2-372 limits assumed): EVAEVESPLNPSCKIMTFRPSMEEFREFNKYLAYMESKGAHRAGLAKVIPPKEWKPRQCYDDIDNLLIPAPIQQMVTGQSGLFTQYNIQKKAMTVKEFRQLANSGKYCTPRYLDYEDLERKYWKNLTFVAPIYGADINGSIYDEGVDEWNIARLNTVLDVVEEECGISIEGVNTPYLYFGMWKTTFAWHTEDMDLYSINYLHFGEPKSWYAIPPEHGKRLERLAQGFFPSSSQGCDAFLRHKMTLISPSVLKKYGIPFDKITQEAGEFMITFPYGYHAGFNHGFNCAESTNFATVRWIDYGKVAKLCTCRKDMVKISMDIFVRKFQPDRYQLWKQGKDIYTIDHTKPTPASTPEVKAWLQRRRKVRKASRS
Experimental: A total of 2 nM of the human TET2 enzyme (catalogue no. 50162, BPS Bioscience) or 4 nM of the human KDM4C enzyme (catalogue no. 50105, BPS Bioscience) was incubated with the substrate of 30 nM single-stranded DNA (ssBiotin 26 nt Me-C Oligo, Genscript), in the presence of αKG (catalogue no. K3752, Sigma-Aldrich), 10 µM ammonium iron(II) sulphate hexahydrate (catalogue no. F3754, Sigma-Aldrich) in assay buffer (50 mM HEPES (catalogue no. 15630-080, Gibco), pH 7.0, 100 mM NaCl, 0.01% Pluronic F-127, 1 mM TCEP (S16054, Shanghai Yuanye Bio-Technology Company), 2 mM ascorbic acid (A5960, Sigma-Aldrich), 0.2 mg/ml BSA (catalogue no. B2064, Sigma-Aldrich) and 1,000 U ml^−1 catalase (catalogue no. C40, Sigma-Aldrich)). […] The concentration of αKG used in the standard assay was calculated for each enzyme batch and is the concentration of substrate at which half the maximum reaction rate is achieved. […] The product was detected by using a 5 nM anti-5hmC antibody (catalogue no. 39999, Active Motif), 5 nM Eu-Protein A (catalogue no. 61PRAKLB, Cisbio), 6.25 nM streptavidin-Alexa Fluor 647 (catalogue no. S21374, Thermo Fisher Scientific) and 10 mM EDTA (catalogue no. 0369, Sigma-Aldrich). […]
The percentage of inhibition was calculated with the following formula: inhibition% = (1−(signal value per well−average low control)/(average high control−average low control)) × 100. […]

[2] = tested on: HIF-P4H activity against pFLAG-Gal4-mHIF-1α NTAD; test: HIF-PH activity luciferase reporter assay in MEFs; assay type: cell-based, mouse
From the text: To test HIF-P4H inhibition via DEG treatment in a cellular system, we used a luciferase reporter assay driven by a Gal4 response element (GRE-luc), pFLAG-Gal4-mHIF-1α N-terminal transcription activation domain (NTAD)[35]. The NTAD contains proline residues that are hydroxylated by HIF-P4H enzymes to target the protein for degradation; thus, luciferase expression in this assay is controlled by HIF-P4H hydroxylation activity against the pFLAG-Gal4-mHIF-1α NTAD.
MEFs were transiently transfected using Lipofectamine 2000 (Thermo Fisher Scientific) with 20 ng per expression plasmid for 2 × 10^4 cells per well in a 96-well plate. Cells were treated with transfection mixes for 8 h.
Generation of plasmids for the HIF-PH activity luciferase reporter assay has been described previously: luciferase reporter driven by GRE-luc pFLAG-Gal4-mHIF-1α NTAD[35]. […] After 8 h of transient transfection with expression plasmids, cells were treated with experimental medium containing metabolites and drugs as described in the figure legends for 16 h; then, the luciferase signal assessed using the Steady-Glo Luciferase Assay System (Promega Corporation) detected using a luminometer. […]

human CD8^+ T cells [3] = test: Markers of T cell differentiation and exhaustion by flow cytometry; assay type: cell-based
Experimental: as §1

[4] = 10 days of DEG treatment, 500 µM

Structure (SMILES) | TCM populations (human CD8^+ T cells [1]; glutarate alone (not esterified), higher doses, 10 days of culture) | IC50 (human TET2 enzyme; IC50 TET2 + 40× αKG, αKG 4,500 µM (competitive assay)) | IC50 (human TET2 enzyme; IC50 recombinant TET2, cell-free) | mode of TET2 inhibition (human TET2 enzyme; reduced inhibition with increased levels of αKG) | IC50 (human KDM4C enzyme) | mode of HIF-P4H-1 inhibition ([2]; MEFs treated 16 h with DEG and dimethyl αKG) | TCM population (CCR7^hiCD45RO^hi) (human CD8^+ T cells [1]; 7 days of culture with DEG) | effector memory T (TEM) cell population (CCR7^loCD45RO^hi) (human CD8^+ T cells [1]; 7 days of culture with DEG) | TET2 inhibition (human TET2 enzyme; cell-free, increasing concentrations, maximum 5 mM) | KDM4C inhibition (human KDM4C enzyme; cell-free, DEG alone) | cellular HIF-P4H activity ([2]; MEFs, 16 h, increasing concentrations of DEG) | expression of LAG3 (human CD8^+ T cells [3]; [4]) | expression of TIM3 (human CD8^+ T cells [3]; [4]) | expression of TOX (human CD8^+ T cells [3]; [4]) | expression of granzyme B (GZMB) (human CD8^+ T cells [3]; DEG 500 µM, 7-10 days)
O=C(O)CCCC(=O)O [glutarate, glutaric acid] | capable of increasing TCM populations | ~5000 µM | 1500 µM | competitive with αKG | 1000 µM | αKG-competitive | – | – | – | – | – | – | – | – | –
CCOC(=O)CCCC(=O)OCC [DEG, Diethyl glutarate] | – | – | – | – | – | – | increased the TCM population | decreased | did not inhibit | not capable of inhibiting | can inhibit | downregulated | downregulated | downregulated | increases
